One data set has as its system rat liver microsomes. Description: Metabolic stability using rat liver microsomes. On the set-up: half-life: dose or concentration left out as unconfirmed. In kind it is in vitro ADME. The source says: (§1) Table 7 summarizes the experimental conditions used in the studies of the metabolic stability of the compound of Formula (Ia) using rat liver microsomes. Table 8 and FIG. 13 show the results from the studies of the metabolic stability of the compound of Formula (Ia) using rat liver microsomes. [table]
In general terms: Microsomes from liver hold many membrane-bound enzymes, among them those of drug oxidation.

Data set [1] relates to dog liver microsomes (DLM). The data set is described as follows: Metabolic stability using dog liver microsomes. In kind it is in vitro ADME. The source says: (§2) Table 9 summarizes the experimental conditions used in the studies of the metabolic stability of the compound of Formula (Ia) using dog liver microsomes and human liver microsomes.
For data set [2], the system named is markers of oxidative stress (SOD1, SOD2, GSH, GSSG, H2O2, HNE-His adducts, DNA fragmentation). Particulars: administered 30 min prior to I/R; same model, previously demonstrated; cited from earlier work.
The next data set has as its system Sprague-Dawley rats. Particulars: previous studies, cited from earlier work.
The subject of data set [3] is human liver microsomes (HLM). Description: Metabolic stability using human liver microsomes. In kind it is in vitro ADME.
Text: as §2

A short description of data set [4]: Stability in sodium phosphate buffer (HPLC). In kind it is physicochemical. The conditions noted are these: for Half life: buffer; for half-life: buffer without microsomes and without NADPH. The protocol:
The stability of the compound of Formula (Ia) in a sodium phosphate buffer (50 mM, pH 7.4) was evaluated using HPLC. […] Area counts of apocynin and lipoid acid were found in 0 minute samples and were generally constant until the last time point measured (see: FIGS. 11-12 and Tables 5-6).

Data set [5] can be described thus: Metabolic stability using rat liver microsomes. In kind it is in vitro ADME. The conditions noted are these: rat, rat liver microsomes, pH 7.4. On the set-up: half-life: dose or concentration left out as unconfirmed.
Text: as §1

Data set [6] can be described thus: Metabolic stability using dog liver microsomes. Particulars: dog, dog liver microsomes, pH 7.4; DLM control (without NADPH). In kind it is in vitro ADME.
Text: as §2

In the next data set the test system is N27 neuronal cells. Description: DNA fragmentation ELISA after hydrogen peroxide exposure of N27 neuronal cells. In kind it is cell-based. Particulars: for DNA cell fragmentation: n = 4. The procedure:
Specifically, the effects of (Ia) on oxidative stress in N27 neuronal cells, a dopaminergic cell line were studied. […]
The cells were then lysed, and DNA fragmentation was determined by ELISA assay.

Data set [7] is described as follows: Metabolic stability using human liver microsomes. In kind it is in vitro ADME. Particulars: human.
Text: as §2

Where [8] appears, read: matrix buffer (no microsomes, no NADPH), DLM/HLM study.
[9] abbreviates: matrix buffer (no microsomes, no NADPH), rat liver microsome study.

Read-outs that look alike come from different tables or passages of the source.

On to “1,2-dithiolane-2-pentanoic acid [lipoic acid]”, for which the “CLintr (mL/min/g liver)” value with rat liver microsomes (rat, microsomes) was below 0.6 mL/min/g liver; in [3] (human, microsomes) it was below 0.6 mL/min/g liver; in data set [4], 0.9 mL/min/g liver; in [4] (rat), below 0.6 mL/min/g liver. Moreover, the “Half life” value is on record as above 30 min in the data set with rat liver microsomes (rat, microsomes); above 30 min in [1] (dog, microsomes); above 30 min in data set [3] (human, microsomes); above 30 min in data set [4]; above 30 min in data set [4] (rat). The SOD2 activity entry in data set [2] is “increased SOD2 activity”. For the same molecule, in the data set with Sprague-Dawley rats (5 mg/kg), the “neuroprotection when administered just prior to the beginning of reperfusion” value was “did not result in significant neuroprotection”. Besides, the most effective dose with Sprague-Dawley rats (I/R model) was 5 mg/kg. In addition, the “% Metabolism in 30 minutes” value in [3], in data set [4] (setting [8]) and in data set [4] (setting [9]) was 0% in each case.

With `COc1cc(C(C)=O)ccc1O` [Apocynin, 4-hydroxy-3-methoxyacetophenone], the “% Metabolism in 30 minutes” value with rat liver microsomes (RLM, control (without NADPH)) was found to be 2%; in the data set on rat liver microsomes (RLM, reaction (with NADPH)), 0%; in [1] (DLM control (without NADPH)), 0%; in data set [1] (DLM reaction (with NADPH)), 30%; in [3] (HLM control (without NADPH)) it was 0%; in data set [3] (HLM reaction (with NADPH)), 0%. Besides, the results for the “% Metabolism in 30 minutes” value in [4] (setting [8]) and in [4] (setting [9]) were 1% and 0%, respectively. In addition, the “CLintr (mL/min/g liver)” value is reported as below 0.6 mL/min/g liver in the data set on rat liver microsomes (RLM, control (without NADPH)); below 0.6 mL/min/g liver in the data set on rat liver microsomes (RLM, reaction (with NADPH)); below 0.6 mL/min/g liver in data set [1] (DLM control (without NADPH)); 1.6 mL/min/g liver in [1] (DLM reaction (with NADPH)); below 0.6 mL/min/g liver in [3] (HLM control (without NADPH)); below 0.6 mL/min/g liver in [3] (HLM reaction (with NADPH)). The “CLintr (mL/min/g liver)” value in data set [4] (setting [8]) and in [4] (setting [9]) was below 0.6 mL/min/g liver in each case. Further, the “Half life” value in the data set with rat liver microsomes (RLM, reaction (with NADPH)) was above 30 min; in data set [1] (DLM reaction (with NADPH)), above 30 min; in data set [3] (HLM reaction (with NADPH)), above 30 min. Also, the half-life (as a rule, the time needed for the level to fall by half in the phase considered) at 0.5 µM in data set [5] (RLM, control (without NADPH)) was above 30 min; in data set [6], above 30 min. For the same molecule, the “DNA fragmentation induced by hydrogen peroxide reduced by” value in the data set with N27 neuronal cells (pretreatment 100 μM) is reported as 41%. Moreover, in the data set on N27 neuronal cells (pretreatment 100 μM, then hydrogen peroxide (1 mM)), the DNA cell fragmentation is listed as 244 ± 32 percentage of control. In addition, in data set [2], the SOD2 activity entry is listed as “ineffective”. Moreover, the half-life in data set [7] (human liver microsomes, HLM control (without NADPH)) is above 30 min; in [4] (setting [8]) it was above 30 min; in data set [4] (setting [9]), above 30 min.

`c1ccc2c(c1)[I+]c1ccccc1-2` [DPI, diphenyleneiodonium]: the “DNA fragmentation induced by hydrogen peroxide reduced by” value in the data set with N27 neuronal cells (pretreatment 10 μM) is given as 48%. Further, the DNA cell fragmentation with N27 neuronal cells (pretreatment 10 μM, then hydrogen peroxide (1 mM)) is on record as 208 ± 38 percentage of control.

Consider `OO` [Hydrogen Peroxide, hydrogen peroxide], for which the DNA cell fragmentation in the data set with N27 neuronal cells (hydrogen peroxide alone (6 hr)) is given as 428 ± 52 percentage of control.

For `O=C(O)Cc1ccccc1Nc1c(Cl)cccc1Cl` [diclofenac], the “% Metabolism in 30 minutes” value is listed as 84% with rat liver microsomes (matrix RLM (positive control)) and 92% in data set [3] (matrix HLM (positive control)). Further, the figures for the “CLintr (mL/min/g liver)” value (with rat liver microsomes (matrix RLM (positive control)); in data set [3] (matrix HLM (positive control))) were 6.4 mL/min/g liver and 8.4 mL/min/g liver, respectively. Moreover, the half-life in data set [5] (matrix RLM (positive control)) worked out at 11 min; in data set [7] (microsomes, matrix HLM (positive control)) it was 9 min.

The record behind these values is US9012492B2, “Apocynin-lipoic acid conjugates and uses thereof” (priority 2011, dated 2015).
